# Source: patent US9440984B2, “Pyrrolotriazines as ALK inhibitors” (Cephalon, Inc., priority 2013, dated 2016)
# Like-named read-outs stand apart in the source and are kept apart here.
# Key:
# ALK [1] = biological target: T1, ALK (Homo sapiens, UniProt Q9UM73); test: ALK autophosphorylation enzyme assay; type: biochemical
# Target sequence in this assay (Q9UM73 19-1620): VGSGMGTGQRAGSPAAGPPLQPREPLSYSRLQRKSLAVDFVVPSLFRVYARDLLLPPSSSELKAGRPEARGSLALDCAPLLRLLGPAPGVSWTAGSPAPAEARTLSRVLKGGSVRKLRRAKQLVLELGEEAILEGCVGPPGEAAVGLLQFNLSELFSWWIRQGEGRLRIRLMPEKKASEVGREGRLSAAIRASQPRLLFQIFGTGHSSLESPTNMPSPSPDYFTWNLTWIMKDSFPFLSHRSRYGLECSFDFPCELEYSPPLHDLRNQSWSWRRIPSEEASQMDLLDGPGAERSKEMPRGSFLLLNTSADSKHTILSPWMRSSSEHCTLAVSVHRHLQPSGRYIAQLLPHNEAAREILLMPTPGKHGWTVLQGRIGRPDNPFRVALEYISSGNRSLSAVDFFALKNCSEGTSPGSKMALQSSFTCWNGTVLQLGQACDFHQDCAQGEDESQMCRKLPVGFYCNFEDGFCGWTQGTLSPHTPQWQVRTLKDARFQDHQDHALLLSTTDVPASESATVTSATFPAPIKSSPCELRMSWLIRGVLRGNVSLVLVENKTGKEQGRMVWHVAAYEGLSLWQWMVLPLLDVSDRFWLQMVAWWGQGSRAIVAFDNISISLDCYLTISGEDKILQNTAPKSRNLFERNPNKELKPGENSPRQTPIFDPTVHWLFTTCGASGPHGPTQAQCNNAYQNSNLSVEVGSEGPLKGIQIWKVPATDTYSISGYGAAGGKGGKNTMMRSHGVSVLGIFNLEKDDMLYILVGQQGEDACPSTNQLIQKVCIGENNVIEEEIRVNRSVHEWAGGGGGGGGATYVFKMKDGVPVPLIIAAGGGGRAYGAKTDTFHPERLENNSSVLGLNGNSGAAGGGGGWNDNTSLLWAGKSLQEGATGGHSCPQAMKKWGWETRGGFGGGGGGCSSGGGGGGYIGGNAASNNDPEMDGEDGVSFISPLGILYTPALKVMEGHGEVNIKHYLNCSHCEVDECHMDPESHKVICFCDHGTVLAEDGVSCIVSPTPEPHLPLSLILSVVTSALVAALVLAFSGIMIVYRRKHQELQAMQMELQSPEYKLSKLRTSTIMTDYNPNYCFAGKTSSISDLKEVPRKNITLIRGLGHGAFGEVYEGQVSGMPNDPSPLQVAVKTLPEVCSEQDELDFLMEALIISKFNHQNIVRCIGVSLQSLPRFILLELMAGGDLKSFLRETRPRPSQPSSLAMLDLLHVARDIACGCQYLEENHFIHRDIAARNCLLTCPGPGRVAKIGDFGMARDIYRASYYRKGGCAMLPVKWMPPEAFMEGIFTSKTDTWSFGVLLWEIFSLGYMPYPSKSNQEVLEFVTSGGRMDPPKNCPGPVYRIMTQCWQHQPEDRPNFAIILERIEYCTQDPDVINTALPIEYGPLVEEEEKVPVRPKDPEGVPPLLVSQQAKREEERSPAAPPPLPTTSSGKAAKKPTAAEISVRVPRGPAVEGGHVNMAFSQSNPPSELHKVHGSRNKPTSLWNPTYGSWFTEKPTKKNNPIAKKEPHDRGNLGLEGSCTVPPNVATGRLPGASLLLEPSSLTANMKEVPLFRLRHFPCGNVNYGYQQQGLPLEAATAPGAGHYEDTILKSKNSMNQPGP
# ALK [2] = biological target: T1, ALK; test: ALK autophosphorylation cellular assay; type: cell-based; conditions: read-out: ALK Cell IC50
# Target sequence in this assay (Q9UM73 with tags, fused parts or gaps): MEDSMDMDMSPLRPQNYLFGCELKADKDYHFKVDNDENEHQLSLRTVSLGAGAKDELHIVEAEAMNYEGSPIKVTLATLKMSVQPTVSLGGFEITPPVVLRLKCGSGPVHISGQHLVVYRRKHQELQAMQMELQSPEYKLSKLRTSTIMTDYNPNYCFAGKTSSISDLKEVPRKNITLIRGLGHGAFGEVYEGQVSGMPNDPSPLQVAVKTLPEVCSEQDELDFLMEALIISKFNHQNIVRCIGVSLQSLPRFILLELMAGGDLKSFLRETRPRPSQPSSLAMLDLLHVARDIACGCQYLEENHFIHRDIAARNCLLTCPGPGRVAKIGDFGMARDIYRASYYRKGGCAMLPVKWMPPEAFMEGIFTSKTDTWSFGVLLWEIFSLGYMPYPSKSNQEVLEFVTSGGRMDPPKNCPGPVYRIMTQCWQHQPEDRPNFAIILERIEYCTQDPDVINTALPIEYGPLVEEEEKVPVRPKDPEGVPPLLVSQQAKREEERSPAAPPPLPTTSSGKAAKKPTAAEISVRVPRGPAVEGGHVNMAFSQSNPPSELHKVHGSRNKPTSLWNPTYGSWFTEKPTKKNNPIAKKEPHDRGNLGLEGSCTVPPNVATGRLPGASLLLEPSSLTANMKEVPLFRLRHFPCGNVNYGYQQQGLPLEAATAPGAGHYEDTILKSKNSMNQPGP
# [3] = Rat pharmacokinetic (PK) studies
# Sup-M2 ALCL xenografts = type: in vivo; conditions: Scid mice, p.o., 10 days; for anti-tumor efficacy (tumor regression): Sup-M2 xenografts
# Experimental: The length (L) and width (W) of each tumor was measured with a Vernier caliper and the mouse body weight was determined every 2 to 3 days. […] Statistical analyses of tumor volumes and mouse body weight were carried out using the Mann-Whitney rank sum test. Plasma and tumor samples were obtained at 2 hours post-final dose, and the compound levels in plasma and tumor lysates were measured by LC/MS-MS.
# [4] = PK/PD study: compound levels in plasma and tumor lysates (LC/MS-MS); type: in vivo; conditions: Scid mice, single p.o. 30 mg/kg, 6 h and 16 h post dose
# Excerpt: Exponentially growing cells were implanted subcutaneously to the left flank of each mouse. The mice were monitored and when the tumor xenograft volumes reached approximately 300 to 500 mm3, mice received a single oral administration of either vehicle PEG-400 or the compound of interest (e.g., Examples 14, 16, 16a, and/or 16b) formulated in vehicle. At indicated time points postdosing, the mice were sacrificed, the blood was collected and centrifuged, and the plasma was collected. The tumors were excised and disrupted with a hand-held tissue blender in completed FRAK lysis buffer without Triton X-100. After brief sonication, the lysates were cleared by centrifugation, mixed with sample buffer, and subjected to SDS-PAGE for ALK immunoblotting as described above. The individual bands of phospho- and total NPM-ALK were scanned and quantified with the Gel Pro Analyzer software (Media Cybernetics, Inc.). The relative NPM-ALK tyrosine phosphorylation (phospho-NPMALK/NPM-ALK ratio) of each sample at indicated time points was then calculated, with the average value of vehicle-treated sample(s) as 100. The compound levels in plasma and tumor lysates were measured by liquid chromatography/tandem mass spectrometry (LC/MS-MS).
# [5] = Sprague-Dawley rat, i.v., 1 mg/kg
# [6] = Sprague-Dawley rat, p.o., 5 mg/kg
# [7] = Sprague-Dawley, rat, in vivo, po, 5 mg/kg
# [8] = Sprague-Dawley, rat, in vivo, iv, 1 mg/kg
compound,measurement,setting,value
"COCCN1CC[C@@H](c2ccc(Nc3ncc4ccc(-c5ccccc5OC)n4n3)c(OC)c2)[C@@H](O)C1 (racemic) [Example 1, (±)-3,4-cis-1-(2-Methoxy-ethyl)-4-{3-methoxy-4-[7-(2-methoxy-phenyl)-pyrrolo[2,1-f][1,2,4]triazin-2-ylamino]-phenyl}-piperidin-3-ol]",IC50,ALK [1],3.33 nM
same,IC50,ALK [2],50 nM
"COc1cc([C@@H]2CCNC[C@@H]2O)ccc1Nc1ncc2ccc(-c3cccnc3OC)n2n1 (racemic) [Example 4, (±)-3,4-cis-4-{3-Methoxy-4-[7-(2-methoxy-pyridin-3-yl)-pyrrolo[2,1-f][1,2,4]triazin-2-ylamino]-phenyl}-piperidin-3-ol]",IC50,ALK [1],14 nM
"COc1cc([C@@H]2CCNC[C@H]2F)ccc1Nc1ncc2ccc(-c3ccccc3OC)n2n1 (racemic) [Example 5, (±)-[4-(3,4-trans-3-Fluoro-piperidin-4-yl)-2-methoxy-phenyl]-[7-(2-methoxy-phenyl)-pyrrolo[2,1-f][1,2,4]triazin-2-yl]-amine]",IC50,ALK [1],5.66 nM
"COc1cc(C2CCN(CCO)CC2(F)F)ccc1Nc1ncc2ccc(-c3ccccc3OC)n2n1 (racemic) [Example 9, (±)-2-(3,3-Difluoro-4-{3-methoxy-4-[7-(2-methoxy-phenyl)-pyrrolo[2,1-f][1,2,4]triazin-2-ylamino]-phenyl}-piperidin-1-yl)-ethanol]",IC50,ALK [1],28.2 nM
"COc1cc([C@@H]2CCN(CC(C)(C)O)C[C@H]2F)ccc1Nc1ncc2ccc(-c3cccnc3OC)n2n1 (racemic) [Example 10, (±)-1-(3,4-trans-3-Fluoro-4-{3-methoxy-4-[7-(2-methoxy-pyridin-3-yl)-pyrrolo[2,1-f][1,2,4]triazin-2-ylamino]-phenyl}-piperidin-1-yl)-2-methyl-propan-2-ol]",IC50,ALK [1],25.2 nM
"COc1cc(C2CCN(CCO)CC2(F)F)ccc1Nc1ncc2ccc(-c3cccnc3OC)n2n1 (racemic) [Example 11, (±)-2-(3,3-Difluoro-4-{3-methoxy-4-[7-(2-methoxy-pyridin-3-yl)-pyrrolo[2,1-f][1,2,4]triazin-2-ylamino]-phenyl}-piperidin-1-yl)-ethanol]",IC50,ALK [1],34 nM
"COc1cc(C2CCNCC2(F)F)ccc1Nc1ncc2ccc(-c3cccnc3OC)n2n1 (racemic) [Example 12, (±)-[4-(3,3-Difluoro-piperidin-4-yl)-2-methoxy-phenyl]-[7-(2-methoxy-pyridin-3-yl)-pyrrolo[2,1-f][1,2,4]triazin-2-yl]-amine]",IC50,ALK [1],13.7 nM
same,IC50,ALK [2],200 nM
"COc1cc([C@@H]2CCN(CCO)C[C@@H]2O)ccc1Nc1ncc2ccc(-c3ccccc3OC)n2n1 (racemic) [Example 14, (±)-3,4-cis-1-(2-Hydroxy-ethyl)-4-{3-methoxy-4-[7-(2-methoxy-phenyl)-pyrrolo[2,1-f][1,2,4]triazin-2-ylamino]-phenyl}-piperidin-3-ol]",AUC0-∞,[3]; [5],371 ± 6 ng·h/mL
same,CL,[3]; [5],46 ± 1 mL/min/kg
same,Vd,[3]; [5],9.9 ± 2 L/kg
same,t1/2,[3]; [5],2.5 ± 0.6 h
same,AUC0-∞,[3]; [6],479 ± 83 ng·h/mL
same,Cmax,[3]; [6],85 ± 15 ng/mL
same,F %,[3]; [6],26 ± 4%
same,Tmax,[3]; [7],6 h
same,rat PK properties (in words),[3]; rat,acceptable rat PK properties
"COc1cc([C@@H]2CCN(CCO)C[C@H]2O)ccc1Nc1ncc2ccc(-c3ccccc3OC)n2n1 (racemic) [Example 16, (±)-3,4-trans-1-(2-Hydroxy-ethyl)-4-{3-methoxy-4-[7-(2-methoxy-phenyl)-pyrrolo[2,1-f][1,2,4]triazin-2-ylamino]-phenyl}-piperidin-3-ol]",AUC(0-inf),[3]; [8],459 ± 72 ng·h/mL
same,Vd,[3]; [8],10.3 ± 1.3 L/kg
same,clearance,[3]; [8],39 ± 7 mL/min/kg
same,half-life,[3]; [8],192 ± 36 min
same,AUC(0-inf),[3]; [7],708 ± 63 ng·h/mL
same,Cmax,[3]; [7],97 ± 10 ng/mL
same,Tmax,[3]; [7],4 ± 1.2 h
same,bioavailability,[3]; [7],31 ± 3%
same,rat PK properties (in words),[3]; rat,acceptable rat PK properties
"COc1cc([C@H]2CCN(CCO)C[C@@H]2O)ccc1Nc1ncc2ccc(-c3ccccc3OC)n2n1 (single isomer, unassigned) [Example 16b]","tolerability (body weight loss, overt toxicity)",Sup-M2 ALCL xenografts; 30 mg/kg b.i.d.,well tolerated
same,"tolerability (body weight loss, overt toxicity)",Sup-M2 ALCL xenografts; 55 mg/kg b.i.d.,well tolerated
same,anti-tumor efficacy (tumor regression),Sup-M2 ALCL xenografts; 30 mg/kg b.i.d.,Complete tumor regressions
same,anti-tumor efficacy (tumor regression),Sup-M2 ALCL xenografts; 55 mg/kg b.i.d.,Complete tumor regressions
same,"plasma and tumor levels, higher than with Example 16a",[4],4-10 fold
"COc1cc(C2CCN(CCO)CC2)ccc1Nc1ncc2ccc(-c3ccccc3OC)n2n1 [Example 18, 2-(4-{3-Methoxy-4-[7-(2-methoxy-phenyl)-pyrrolo[2,1-f][1,2,4]triazin-2-ylamino]-phenyl}-piperidin-1-yl)-ethanol]",IC50,ALK [1],3 nM
same,IC50,ALK [2],150 nM
